US20250213606A1, “MEDICINAL AGENT (EMBODIMENTS) AND DEVICE FOR USING SAME” (priority 2022, published 2025)

How the values were obtained:
[1] = system: laboratory animals and volunteer testers; assay: Effective concentration ranges of the components of the mixture; assay type: in vivo
[2] = governs risk of condensation in cold conditions; cited from earlier work

## [Ar] [argon]
[1]; laboratory animals, volunteer testers and foreign sources
  range of efficiency with the greatest effect, concentration in a mixture with oxygen: 30-70 % by volume

## [He] [helium]
[1]; in a mixture with oxygen from 21, argon at least 25 % by volume, xenon and krypton, mixture temperature 30 to 70° C.
  effective content providing antihypothermic and antihypoxic effects: at least 40 % by volume

## [Kr] [krypton]
[2]
  critical temperature: 209.35 K
